Data published in PubChem BioAssay AID2060340 (Molecular Pharmacology Branch, DTP, NCI, 2025).

Tested on: 349418-098-R-PDC spheroids, viability, % test/control
Assay: Anticancer human tumor 349418-098-R-PDC patient-derived lung adenocarcinoma cell line growth inhibition [IpAb]
Conditions: spheroids with HUVEC and MSC; for IC50: curve of first compound; for viability, T/C: stronger effect = lower value; active = viability on the fitted dose curve at most 10% of control; inactive = the rest
Outline: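 Spheroids of 60% malignant cells, 25% HUVEC and 15% MSC were exposed to targeted agents combined with ipatasertib or abemaciclib. Doses started at or near clinical Cmax (10 microM when unknown) and fell in half-log steps.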
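Also: spheroids exposed to compounds for 7 days.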

Cn1cnc2c(F)c(Nc3ccc(Br)cc3Cl)c(C(=O)NOCCO)cc21 + CC(C)NCC(C(=O)N1CCN(c2ncnc3c2C(C)CC3O)CC1)c1ccc(Cl)cc1
< 9.49 nM: IC50 (second compound 0.1 µM) | IC50 (second compound 0.316 µM) | IC50 (second compound 1 µM) | IC50 (second compound 3.16 µM) | IC50 (second compound 10 µM)
active: viability, T/C (second compound 0.1 µM, first compound 3 µM) 8.1% | viability, T/C (second compound 0.316 µM, first compound 3 µM) 7.06% | viability, T/C (second compound 1 µM, first compound 0.0949 µM) 10.3% | viability, T/C (second compound 1 µM, first compound 0.3 µM) 7.91% | viability, T/C (second compound 1 µM, first compound 0.949 µM) 6.83% | viability, T/C (second compound 1 µM, first compound 3 µM) 5.21% | viability, T/C (second compound 3.16 µM, first compound 0.00949 µM) 7.25% | viability, T/C (second compound 3.16 µM, first compound 0.03 µM) 6.51% | viability, T/C (second compound 3.16 µM, first compound 0.0949 µM) 5.52% | viability, T/C (second compound 3.16 µM, first compound 0.3 µM) 5.93% | viability, T/C (second compound 3.16 µM, first compound 0.949 µM) 4.94% | viability, T/C (second compound 3.16 µM, first compound 3 µM) 3.63% | viability, T/C (second compound 10 µM, first compound 0.00949 µM) 5.59% | viability, T/C (second compound 10 µM, first compound 0.03 µM) 5.09% | viability, T/C (second compound 10 µM, first compound 0.0949 µM) 4.7% | viability, T/C (second compound 10 µM, first compound 0.3 µM) 3.85% | viability, T/C (second compound 10 µM, first compound 0.949 µM) 3.8% | viability, T/C (second compound 10 µM, first compound 3 µM) 3.14%
inactive: viability, T/C (second compound 0.1 µM, first compound 0.00949 µM) 46.7% | viability, T/C (second compound 0.1 µM, first compound 0.03 µM) 38.4% | viability, T/C (second compound 0.1 µM, first compound 0.0949 µM) 41.8% | viability, T/C (second compound 0.1 µM, first compound 0.3 µM) 33.6% | viability, T/C (second compound 0.1 µM, first compound 0.949 µM) 18.8% | viability, T/C (second compound 0.316 µM, first compound 0.00949 µM) 25.7% | viability, T/C (second compound 0.316 µM, first compound 0.03 µM) 24.6% | viability, T/C (second compound 0.316 µM, first compound 0.0949 µM) 21.4% | viability, T/C (second compound 0.316 µM, first compound 0.3 µM) 18.8% | viability, T/C (second compound 0.316 µM, first compound 0.949 µM) 10.2% | viability, T/C (second compound 1 µM, first compound 0.00949 µM) 12.5% | viability, T/C (second compound 1 µM, first compound 0.03 µM) 10.5%
